Results published in patent US10654834B2 (Venenum Biodesign, LLC, priority 2016, dated 2020).
pEC50: −log10 of the molar value.

Columns and labels:
[1] = biological target: T1, mouse TGR5 receptor (Mus musculus, UniProt Q80SS6); assay: Mouse TGR5 luminescent cAMP production assay (HEK293-EBNA cells, DiscoveRx cAMP XS+ kit); type: cell-based; conditions: HEK293-EBNA cells overexpressing mouse TGR5, luminescent cAMP assay; read-out: Mouse TGR5 Lum. cAMP Activity (EC50)
T1 construct: host or cells: HEK293-EBNA (293 c18, ATCC CRL10852)
T1 sequence (Q80SS6 1-329): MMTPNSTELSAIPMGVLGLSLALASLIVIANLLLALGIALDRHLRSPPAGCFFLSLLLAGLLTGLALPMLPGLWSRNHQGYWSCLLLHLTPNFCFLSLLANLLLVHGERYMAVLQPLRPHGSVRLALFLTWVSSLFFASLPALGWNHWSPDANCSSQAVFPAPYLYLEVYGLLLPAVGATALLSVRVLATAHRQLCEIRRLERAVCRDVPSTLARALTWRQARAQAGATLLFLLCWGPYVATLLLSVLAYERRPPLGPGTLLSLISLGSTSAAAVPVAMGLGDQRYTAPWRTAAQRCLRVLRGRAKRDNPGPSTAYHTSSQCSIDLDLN
Outline: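 HEK293-EBNA cells stably expressing mouse TGR5, resuspended in serum-free DMEM with 500 μM IBMX, were premixed 20 min with cAMP antibody, then exposed to half-log compound dilutions for 1 h at room temperature. cAMP was read by luminescent enzyme-fragment complementation (cAMP XS+) after overnight incubation; EC50 derived.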

[2] = system: GLP-1; assay: GLP-1 measurement at end of OGTT in C57BL/6NTac mice; type: in vivo, mouse; conditions: for blood GLP-1 level after OGTT, combination with sitagliptin: 30 mg/kg + sitagliptin 3 mg/kg p.o.
Procedure: Immediately after the last blood glucose measurement (i.e., 120 minutes after the glucose administration), the blood was collected via cardiac puncture for GLP-1 measurements. The collected blood (200-250 μL) was placed in an EDTA K^2+ tube containing 5 μL of 40 mg/mL aprotinin (Sigma A1153) and 1 μL of 10 mM sitagliptin (Sigma S8576) and plasma was separated by centrifugation. Plasma samples were stored at −20° C. until analysis. The active form of GLP-1 [GLP-1 (7-36) amide] was analyzed using Meso Scale Discovery System according to the manufacturer's directions (item number K150HYC). […] A synergy between the Compound 56 and sitagliptin is also observed (FIG. 3). Values of p<0.01 and <0.001 are considered statistically significant.
FIG. 4 depicts blood glucose measurements at 15, 30, 60, 90, and 120 min following glucose gavage. FIG. 5 depicts AUC data after glucose gavage. FIG. 6 depicts the blood GLP-1 levels comparing mice treated with a DPP-4 inhibitor (i.e., sitagliptin) to mice treated with Compound 268+a DPP-4 inhibitor (i.e., sitagliptin).

[3] = system: blood glucose; assay: Oral glucose tolerance test (OGTT) in C57BL/6NTac mice; type: in vivo, mouse
Procedure: Oral Glucose Tolerance Test (OGTT)
Compounds of the present invention were tested to determine if they could decrease blood glucose levels in mice after glucose administration (i.e., effective in glycemic control). In this study, we orally administered a standard dose of glucose to mice and measured glucose levels in circulating blood at several defined time points after the glucose administration.
8-12 week old male C57BL/6NTac (Taconic) mice were fasted overnight. On the morning of the experiment, the mice were weighed and divided into experimental groups (n=8) assigned by randomizing mice based on baseline blood glucose levels. Following group assignments, mice were dosed with 3 mg/kg sitagliptin or PBS as vehicle control via oral gavage (5 mL/kg) exactly 1 hour before oral gavage dosing of compound (30 mg/kg) or vehicle (0.5% carboxymethylcellulose (medium viscosity)+0.25% Tween −80) at a volume of 10 mL/kg. Time zero blood glucose levels were measured 4 hours after compound or vehicle dosing. Immediately following time zero blood glucose level measurement, mice were gavaged with 2 g/kg of glucose. […] AUC were calculated and data analyzed using one-way ANOVA followed by Dunnett's post-test in GraphPad Prism (FIG. 2). […]

In the case of `N#Cc1ccc(CCNC(=O)[C@@H]2CCCN2c2cc(N3CCC(CCO)CC3)nc(C(F)(F)F)n2)cc1` [Compound 22], the pEC50 [1] was over 7.00.
`COCC1CCN(c2cc(N3CCC[C@H]3C(=O)NCCc3ccc(C#N)cc3)nc(C(F)(F)F)n2)CC1` [Compound 24] gave a pEC50 [1] of over 7.00.
Molecule `N#Cc1ccc(CCNC(=O)[C@@H]2CCCN2c2cc(N3CCC(CCN)CC3)nc(C(F)(F)F)n2)cc1` [Compound 50, (S)-1-(6-(4-(2-aminoethyl)piperidin-1-yl)-2-(trifluoromethyl)pyrimidin-4-yl)-N-(4-cyanophenethyl)pyrrolidine-2-carboxamide] has a pEC50 [1] of over 7.00.
With `N#Cc1ccc(CCNC(=O)[C@@H]2CCCN2c2cc(N3CCC(CCC(=O)NCCS(=O)(=O)O)CC3)nc(C(F)(F)F)n2)cc1` [Compound 56, (S)-2-(3-(1-(6-(2-((4-cyanophenethyl)carbamoyl)pyrrolidin-1-yl)-2-(trifluoromethyl)pyrimidin-4-yl)piperidin-4-yl)propanamido)ethanesulfonic acid] the “blood GLP-1 level after OGTT, combination with sitagliptin” value [2] was “synergy”, the “blood GLP-1 level after OGTT” value ([2]; 30 mg/kg p.o., 120 min after glucose) was “increased GLP-1 level” and the “blood glucose levels in OGTT” value ([3]; 30 mg/kg p.o. 4 h before 2 g/kg glucose, 15-120 min) was “effectively reduced blood glucose levels throughout the time period measured”.
Molecule `N#Cc1ccc(CCNC(=O)[C@@H]2CCN2c2cc(N3CCC(CO)CC3)nc(C(F)(F)F)n2)cc1` [Compound 219, (S)—N-(4-cyanophenethyl)-1-(6-(4-(hydroxymethyl)piperidin-1-yl)-2-(trifluoromethyl)pyrimidin-4-yl)azetidine-2-carboxamide] has a pEC50 [1] of over 7.00.
`N#Cc1ccc(CCNC(=O)[C@@H]2CCN2c2cc(N3CCC(CCO)CC3)nc(C(F)(F)F)n2)cc1` [Compound 223, (S)-N-(4-cyanophenethyl)-1-(6-(4-(2-hydroxyethyl)piperidin-1-yl)-2-(trifluoromethyl)pyrimidin-4-yl)azetidine-2-carboxamide] gave a pEC50 [1] of over 7.00.
With `N#Cc1ccc(CCNC(=O)[C@@H]2CCN2c2cc(N3CCC(CCNC(=O)NCCC(=O)O)CC3)nc(C(F)(F)F)n2)cc1` [Compound 268, (S)-3-(3-(2-(1-(6-(2-((4-cyanophenethyl)carbamoyl)azetidin-1-yl)-2-(trifluoromethyl)pyrimidin-4-yl)piperidin-4-yl)ethyl)ureido)propanoic acid] the “blood GLP-1 level after OGTT, combination with sitagliptin” value [2] was “induced GLP-1 production” and the “blood glucose levels in OGTT, combination with sitagliptin” value ([3]; 30 mg/kg + sitagliptin 3 mg/kg p.o. versus sitagliptin alone) was “effectively reduced blood glucose levels throughout the time period measured”.
`N#Cc1ccc(CCNC(=O)[C@@H]2CCCN(c3cc(N4CCC(CO)CC4)nc(C(F)(F)F)n3)C2)cc1` [Compound 308, (R)—N-(4-cyanophenethyl)-1-(6-(4-(hydroxymethyl)piperidin-1-yl)-2-(trifluoromethyl)pyrimidin-4-yl)piperidine-3-carboxamide] gave a pEC50 [1] of over 7.00.
